Assay results published in PMC8959600 (eLife, 2022).
Values after ≈ are worked out from the molar mass of the structure shown.

How the values were obtained:
S. sonnei 02–1181 = assay: Solid medium test at 10 µM and dose-response MIC against MDR clinical isolate; format: cell-based, Shigella sonnei
Protocol: (§1) The confirmed hit list was narrowed by applying the following filters: a 30% cut-off value, absence of undesirable structural features (e.g. electrophiles, peroxides, and Michael acceptors) and reduced physicochemical risk (maximum five aromatic rings and PFI <8)([Leeson and Young, 2015]). […] Briefly, the selected bacteria were cultured on the Luria-Bertani agar overnight at 37 °C (Campylobacter isolates were grown in 2.5% Laked Horse Blood cation-adjusted Mueller Hinton medium (CAMHB, Sigma Aldrich) and incubated in microaerophilic conditions (10% CO2, 5% O2 and 85% N2) at 42 °C); colonies were added to sterile PBS to form 0.5 McFarland solutions. All chemical testing was performed at an initial concentration of 10 μM. Bacterial suspensions were evenly spread on Mueller-Hinton agar by sterile cotton swabs (Medical Wire – MWE). […] Plates were incubated overnight at 37 °C. The activity of the chemical was recorded as being active (yes) or non-active (no) for each of the tested chemicals.
(§2) MICs were evaluated using the micro dilution assay in Müller Hinton broth using 1 mM chemical stock solutions, and a final concentration of 5 × 10^5 CFU/mL bacteria. Twofold serial dilutions were prepared in 96-well plates at concentration ranging from 1 μM to 7.8 nM. 100 μL bacteria were added and incubated at 37 °C overnight; 10 μl of each solution was dropped onto Luria-Bertani agar and incubated overnight at 37 °C for the detection of bacterial growth. Results were interpreted as minimal concentration necessary to inhibit growth.

S. flexneri EG478 = assay: as above; format: cell-based, Shigella flexneri; conditions: for bactericidal activity: MDR clinical isolate S. flexneri EG478; for MIC range: range over S. flexneri EG478 and S. sonnei 02-1181
Protocol: as §1, §2

S. flexneri 2457T [1] = assay: microbe, parasite or virus in culture; format: cell-based, Shigella flexneri; conditions: Shigella flexneri, 2457T
Protocol: Bacterial inoculum without drug was used as positive control. The bacteria inoculum (1 × 10^5 CFU/mL) for the assay was prepared by diluting a log phase incubated at 37 °C for 3–4 hr. Mueller Hinton agar plates were prepared containing 4xMIC and 10xMIC and inoculated with different concentrations of bacteria (1 × 10^9, 1 × 10^8, and 1 × 10^7 CFU/mL). Plates were prepared in duplicate and incubated overnight at 37 °C. The frequency of spontaneous resistant mutants was calculated by using the formula: FoR = resistant CFUs/inoculum CFUs. The mean of the two plates was reported.

[2] = Intestinal distribution by MALDI imaging in mice; format: in vivo
Protocol: One animal was euthanised at 0.25, 0.5, 1, and 4 hr respectively and 2.5–3 cm sections of the intestine (duodenum, jejunum, ileum, caecum, and colon) were collected and frozen at –80 °C. For quantitative LCMS analysis of intestine homogenate, samples were thawed at ambient temperature, mixed with water (1:1) and homogenised by turrax (10 sec). Subsequently, 20 µL of homogenate were mixed with 200 µl of ACN: MeOH (80:20) and filtered using 0.2 µm filter plate (Whatman). LCMS analysis was performed as described in previous section. For MALDI imaging, 50 mm of the central part of each intestinal section were cut and mounted in a sample disc on dry ice with a solution of 1% methylcellulose (Sigma Aldrich, UK). Next, tissue sections of 12 µm (sagital sections) were obtained using a cryostat (Leica CM3600; Leica Microsystems Inc, Wetzlar, Germany) at –20 °C and collected in conductive-coated slides for MALDI Imaging (Bruker Daltonic). After the ‘MALDI’ section was obtained a consecutive section for histology was taken. Prior to matrix coating, samples for MALDI were optical scanned in a PathScanner. The matrix deposition was conducted in a sprayer ImagePrep System (Bruker Daltonic) which uses vibrational vaporisation technology. As matrix solution α-CHCA (α-Cyano-4-hydroxycinnamic acid (Sigma Aldrich) dissolved in 70:30 methanol/water (v/v) containing 0.2% TFA at 7 mg/mL was used. MALDI MSI data were obtained using a Bruker UltrafleXtream MALDI TOF/TOF (Bruker Daltonic, Germany)).
Both compounds were analysed in positive mode using a LIFT method. For Tebipenem, parent compound was 384.32 and the detection mass window between m/z 0–400. 298.164 were the most intensive fragment. […] We used a laser shut at 85% power with a 50 μm step size, 100 times at raster spot in random wak mode. FlexImaging 4.1(bruker Daltoninc, Germany) were used for the data visualisation. […]
MALDI Imaging is not a quantitative technique, therefore, the colour scale of images is relative to the maximum intensity (100 corresponds with the maximal signa in each slide). […]

S. flexneri 2457T [3] = assay: Gnotobiotic piglet Shigella infection model, efficacy; format: in vivo; conditions: piglets
Shigella flexneri 2457T = assay: Resazurin growth inhibition, dose response (IC50/IC90) in Müller Hinton medium; format: cell-based; conditions: ATCC700930
Protocol: We developed a high-throughput screening (HTS) method to identify compounds that could inhibit the growth of Shigella flexneri 2457T in Müller Hinton medium (Sigma Aldrich, UK). We adapted a resazurin reduction protocol from Franzblau et al. as surrogate readout for bacterial viability because it provided a stable signal, a low interference level, and was cost effective ([Franzblau et al., 1998]). Prior to the day of experimentation, one colony was used to inoculate 50 mL Mueller Hinton medium, and the culture was incubated overnight at 37 °C. The next day, 500 μL of the bacterial culture were inoculated into 50 mL fresh Mueller Hinton medium and bacterial growth was measured periodically at 600 nm. When the culture reached OD = 0.4–0.6, the inoculum was diluted to 1 × 10^6 CFU/mL; this bacterial suspension was added to compound pre-dispensed plates for screening.
The assay was performed in 1536-well polystyrene assay plates (HiBase, μClear, Greiner Bio‐One) and used to screen ~1.7 million compounds from (a) GSK naïve chemical diversity, (b) GSK antibacterial programs, and (c) marketed antimicrobial agents. All commercially available chemicals were purchased from either Sigma Aldrich, UK, AK Scientific, or Fischer Chemicals. The GSK compound screening set was sub-selected from the 8 million compound GSK collection using the principles described by Harper and co-workers ([Harper et al., 2004]). The process to generate the structural filters to remove compounds bearing undesirable/reactive chemotypes and/or non-developable physicochemical properties has been described previously by [Chakravorty et al., 2018]. […]. The set of marketed antibacterial agents included most commercial antimicrobial agents.
For screening, plates were prepared by dispensing 50 nl of compound from master plates at 1 mM in each well using a LabCyte Echo system. The final assay volume was 5 μl and the final compound concentration was 10 µM. The 11th and 12th columns were growth controls containing 50 nL of DMSO. The 34th and 35th columns contained 50 nL of Moxifloxacin at 20 μM as negative growth controls. Five µl of bacterial inoculum was dispensed into compound pre-dispensed plates using a Multidrop Combi dispenser (Thermo Scientific). Plates were agitated for 10 s to ensure mixing and incubated at 37 °C overnight (16–17 hr). Following overnight culture, 2 µl resazurin solution (Resazurin tablets for milk testing, BDH) was added to each well and incubated at room temperature in the dark for 3 hr. Fluorescence intensity was measured using an Envision plate reader (PerkinElmer). […] Data were analysed using Base software and statistical cut-off analysis was used for ‘hit’ selection following a standard GSK protocol. To calculate the statistical cut-off, percentage growth inhibition was calculated per well according to the plate controls, these values were aggregated to calculate the robust mean and standard deviation (SD) of the distribution. The robust mean was calculated starting from the median and the MAD of the distribution with an iterative process that aimed to remove outliers. Once the mean and SD were calculated, all compounds above mean + 3 SD were selected as primary hits.
After the initial screen, we generated fresh samples of the primary compound hits and tested them in duplicate against S. flexneri 2457T at 10 μM to confirm activity. The confirmed hit list was narrowed by applying the following filters: a 30% cut-off value, absence of undesirable structural features (e.g. electrophiles, peroxides, and Michael acceptors) and reduced physicochemical risk (maximum five aromatic rings and PFI <8)([Leeson and Young, 2015]). […].

S. flexneri 2457T [4] = format: in vivo; conditions: mice, 40 mg/kg PO, 24 hr post infection, limit of quantification 80

In the case of `C[C@@H](O)[C@H]1C(=O)N2C(C(=O)O)=C(S[C@@H]3CN[C@H](C(=O)Nc4cccc(C(=O)O)c4)C3)[C@H](C)[C@H]12` [Ertapenem], the bactericidal activity (S. sonnei 02–1181) is reported as “greatest bactericidal activity”, the bactericidal activity (S. flexneri EG478) is reported as “greatest bactericidal activity” and the MIC range (S. flexneri EG478) is reported as 0.04 to 0.15 µg/mL.

`COc1c(N2C[C@@H]3CCCN[C@@H]3C2)c(F)cc2c(=O)c(C(=O)O)cn(C3CC3)c12` [Moxifloxacin] gave an MIC (S. flexneri 2457T [1]) of 0.2 µM (≈ 0.0803 µg/mL).

With `C[C@@H](O)[C@H]1C(=O)N2C(C(=O)O)=C(S[C@@H]3CN[C@H](C(=O)N(C)C)C3)[C@H](C)[C@H]12` [Meropenem] the bactericidal activity (S. sonnei 02–1181) was “greatest bactericidal activity”, the bactericidal activity (S. flexneri EG478) was “greatest bactericidal activity” and the MIC range (S. flexneri EG478) was 0.15 µg/mL (≈ 0.391 µM).

In the case of `C[C@@H](O)[C@H]1C(=O)N2C(C(=O)OCOC(=O)C(C)(C)C)=C(SC3CN(C4=NCCS4)C3)[C@H](C)[C@H]12` [Tebipenem pivoxil], the “MALDI detection in the intestinal lumen” value ([2]; 60 min after oral pro-drug) is reported as “not detectable in the lumen”, the “MALDI detection within enterocytes” value ([2]; after oral pro-drug) is reported as “not detected within enterocytes” and the “histopathology of the large intestine vs placebo” value (S. flexneri 2457T [3]; day six post infection) is reported as “marked reduction in intestinal lesions and inflammation”. For the same molecule, the “CFU/g Shigella in stool” value (S. flexneri 2457T [3]; single dose given 24 hr after infection, from 1 × 10^7, within 24 hr) was “zero”.

With `CC[C@H]1OC(=O)[C@H](C)[C@@H](O[C@H]2C[C@@](C)(OC)[C@@H](O)[C@H](C)O2)[C@H](C)[C@@H](O[C@@H]2O[C@H](C)C[C@H](N(C)C)[C@H]2O)[C@](C)(O)C[C@@H](C)CN(C)[C@H](C)[C@@H](O)[C@]1(C)O` [Azithromycin] the IC90 (Shigella flexneri 2457T) was 7.49 µg/mL (≈ 10 µM).

For `C[C@@H](O)[C@H]1C(=O)N2C(C(=O)O)=C([C@H]3CCCO3)S[C@H]12` [Faropenem], the MIC range (S. flexneri EG478) was 2.5 to 6.25 µg/mL.

Work on `CO[C@H]1/C=C/O[C@@]2(C)Oc3c(C)c(O)c4c(O)c(c(/C=N/N5CCN(C)CC5)c(O)c4c3C2=O)NC(=O)/C(C)=C\C=C\[C@H](C)[C@H](O)[C@@H](C)[C@@H](O)[C@@H](C)[C@H](OC(C)=O)[C@@H]1C` [Rifampicin] yielded an MIC (S. flexneri 2457T [1]) of 3.7 µM (≈ 3.04 µg/mL).

Molecule `CO/N=C(\C(=O)N[C@@H]1C(=O)N2C(C(=O)O)=C(CSc3nc(=O)c(=O)[nH]n3C)CS[C@H]12)c1csc(N)n1` [Ceftriaxone] has an IC90 (Shigella flexneri 2457T) of 0.067 µg/mL (≈ 0.121 µM) and an MIC (S. flexneri 2457T [1]) of 0.2 µM (≈ 0.111 µg/mL).

With `O=C(O)c1cn(C2CC2)c2cc(N3CCNCC3)c(F)cc2c1=O` [Ciprofloxacin] the IC90 (Shigella flexneri 2457T) was 0.02 µg/mL (≈ 0.0604 µM), the MIC (S. flexneri 2457T [1]) was 0.06 µM (≈ 0.0199 µg/mL) and the “S. flexneri CFUs in gastrointestinal tissue” value (S. flexneri 2457T [4]) was < 80 CFU.

Molecule `CC1(C)S[C@@H]2[C@H](/N=C/N3CCCCCC3)C(=O)N2[C@H]1C(=O)O` [Mecillinam] has an IC90 (Shigella flexneri 2457T) of 0.058 µg/mL (≈ 0.178 µM) and an MIC (S. flexneri 2457T [1]) of 0.2 µM (≈ 0.0651 µg/mL).

Molecule `CC1(C)S[C@@H]2[C@H](NC(=O)[C@H](N)c3ccccc3)C(=O)N2[C@H]1C(=O)O` [Ampicilin] has an MIC (S. flexneri 2457T [1]) of 7.5 µM (≈ 2.62 µg/mL).
